Reference: ChEMBL document CHEMBL5360575, “Broad-spectrum coronavirus 3C-like protease peptidomimetic inhibitors effectively block SARS-CoV-2 replication in cells: Design, synthesis, biological evaluation, and X-ray structure determination” (Eur J Med Chem, 2023)

Assays:
[1] = Inhibition of MERS 3CL protease expressed in Escherichia coli BL21(DE3) cells using DABCYL-KTSAVLQSGFRKM-EDANS as substrate preincubated for 30 mins followed by substrate addition and measured after 30 mins by FRET assay; design: species or system Middle East respiratory syndrome-related coronavirus
[2] = system: SARS-CoV-2; assay: microbe, parasite or virus in culture; conditions: Severe acute respiratory syndrome coronavirus 2, […], Vero C1008
[3] = biological target: T1, Replicase polyprotein 1ab (Severe acute respiratory syndrome coronavirus 2, UniProt P0DTD1); assay: Inhibition of SARS-CoV-2 3CL protease expressed in Escherichia coli BL21(DE3) cells using DABCYL-KTSAVLQSGFRKM-EDANS as substrate preincubated for 30 mins followed by substrate addition and measured after 15 mins by FRET assay
[4] = system: Human coronavirus 229E; assay: microbe, parasite or virus in culture; conditions: BEAS-2B
[5] = system: Middle East respiratory syndrome-related coronavirus; assay: microbe, parasite or virus in culture; conditions: Vero C1008, 96 h
[6] = system: SARS-CoV-2; assay: microbe, parasite or virus in culture; conditions: Severe acute respiratory syndrome coronavirus 2, […], Vero C1008, 72 h
[7] = system: BEAS-2B; assay: Cytotoxicity against human BEAS-2B cells assessed as reduction in cell viability; format: toxicity, cell-based
[8] = biological target: T1, Replicase polyprotein 1ab; assay: Covalent binding affinity to SARS-CoV-2 3CL protease expressed in Escherichia coli BL21(DE3) cells after 30 mins by FRET assay
[9] = system: SARS-CoV-2; conditions: Severe acute respiratory syndrome coronavirus 2, […], Calu-3, 48 h
[10] = biological target: Replicase polyprotein 1ab (Severe acute respiratory syndrome coronavirus 2) (UniProt P0DTD1); conditions: dose 40.0 µM, time 30.0 min
[11] = Selectivity index, ratio of CC50 for human BEAS2B cells to EC50 for antiviral activity against HCoV229E infected in BEAS-2B cells; format: toxicity, cell-based; conditions: read-out: Ratio CC50/EC50

With `CC(C)[C@H](NC(=O)OC(C)(C)C)C(=O)N1C[C@H](OC(C)(C)C)C[C@H]1C(=O)N[C@H](C=O)C[C@@H]1CCNC1=O` the IC50 [1] was 26000 pM, the EC50 [2] was 33.4 µM and the IC50 [3] was 0.0025 µM. The EC50 [4] was over 48.2 µM, the EC50 [5] was 33.6 µM and the EC50 [6] was 3.4 µM. It also gave a CC50 [7] of 48.2 µM.
In the case of `CC(C)[C@H](NC(=O)OC(C)(C)C)C(=O)N1C[C@@H]2CCC[C@@H]2[C@H]1C(=O)N[C@H](C=O)C[C@@H]1CCNC1=O`, the IC50 [1] is reported as 143000 pM, the Ki [8] is reported as 0.0032 µM and the EC50 [2] is reported as 5.3 µM. It also gave an IC50 [3] of 0.005 µM, an EC50 [9] of 0.449 µM and an EC50 [4] of 0.24 µM. The ΔTm [10] was 4 °C, the EC50 [6] was 0.21 µM and the CC50 [7] was 28.4 µM.
For `CC(C)C[C@H](NC(=O)[C@@H](NC(=O)OC(C)(C)C)C(C)C)C(=O)N[C@H](C=O)C[C@@H]1CCNC1=O`, the IC50 [1] was 20 pM, the EC50 [2] was 40.1 µM and the IC50 [3] was 0.0007 µM. It also gave a selectivity ratio [11] of over 30.1, an EC50 [4] of 2.3 µM and an EC50 [5] of 1.58 µM. The EC50 [6] was 3.6 µM and the CC50 [7] was 70.5 µM.
`C[C@H](OC(C)(C)C)[C@H](NC(=O)OC(C)(C)C)C(=O)N1CCC[C@H]1C(=O)N[C@H](C=O)C[C@@H]1CCNC1=O` showed an IC50 [1] of 22 pM, an EC50 [2] of 22.9 µM and an IC50 [3] of 0.0053 µM. For the same compound, the EC50 [6] was 1.86 µM.
Work on `CC(C)C[C@H](NC(=O)OCc1ccccc1)C(=O)N[C@@H](C[C@@H]1CCNC1=O)C(O)S(=O)(=O)O` (stereo not given in full) yielded a CC50 [7] of over 100 µM.
With `CC(C)[C@H](NC(=O)OC(C)(C)C)C(=O)N1CCC[C@H]1C(=O)N[C@H](C=O)C[C@@H]1CCNC1=O` the IC50 [1] was 20 pM, the EC50 [2] was 22.5 µM and the IC50 [3] was 0.00623 µM. The EC50 [4] was over 17.9 µM, the EC50 [5] was 4.56 µM and the EC50 [6] was 16 µM. The CC50 [7] was 17.9 µM.
For `CO[C@H]1C[C@@H](C(=O)N[C@H](C=O)C[C@@H]2CCNC2=O)N(C(=O)[C@@H](NC(=O)OC(C)(C)C)C(C)C)C1`, the IC50 [1] was 7 pM, the EC50 [2] was 23.6 µM and the IC50 [3] was 0.00024 µM. For the same compound, the EC50 [4] was over 3.6 µM, the EC50 [5] was 0.58 µM and the EC50 [6] was 8.7 µM. For the same compound, the CC50 [7] was 3.6 µM.
For `CC(C)[C@H](NC(=O)OC(C)(C)C)C(=O)N1CCCC[C@H]1C(=O)N[C@H](C=O)C[C@@H]1CCNC1=O`, the EC50 [2] was over 100 µM, the IC50 [3] was 3.35 µM and the EC50 [6] was 5.83 µM.
Compound `CC(C)[C@H](NC(=O)OC(C)(C)C)C(=O)N1C[C@@H](C)C[C@H]1C(=O)N[C@H](C=O)C[C@@H]1CCNC1=O` has an IC50 [1] of 2330 pM, an EC50 [2] of 47.2 µM and an IC50 [3] of 0.00047 µM. It also gave an EC50 [6] of 16.9 µM.
